Experimental data published in paper PMC6511404 (Biochemistry, 2019).

Tests used:
[1] = target: T1, E. coli enolase (Escherichia coli, UniProt P0A6P9); assay: X-ray crystal structure, […] Å; assay type: binding
Target sequence in this assay (P0A6P9 whole entry): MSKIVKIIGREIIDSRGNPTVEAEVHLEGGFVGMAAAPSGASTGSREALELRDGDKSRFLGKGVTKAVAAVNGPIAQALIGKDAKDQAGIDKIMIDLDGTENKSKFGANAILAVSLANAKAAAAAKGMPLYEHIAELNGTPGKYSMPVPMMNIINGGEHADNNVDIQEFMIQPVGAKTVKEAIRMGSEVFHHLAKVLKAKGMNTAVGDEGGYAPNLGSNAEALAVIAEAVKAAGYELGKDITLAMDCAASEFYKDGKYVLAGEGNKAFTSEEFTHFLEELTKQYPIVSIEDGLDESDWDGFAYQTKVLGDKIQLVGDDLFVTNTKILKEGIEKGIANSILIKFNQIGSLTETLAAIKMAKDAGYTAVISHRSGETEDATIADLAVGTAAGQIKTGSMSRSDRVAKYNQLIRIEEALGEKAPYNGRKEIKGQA

[2] = target: T1, E. coli enolase; assay: enolase assay, % inhibition at […]; assay type: biochemical; settings: read-out: % inhibition at 20 μM
Target sequence in this assay (P0A6P9 2-432): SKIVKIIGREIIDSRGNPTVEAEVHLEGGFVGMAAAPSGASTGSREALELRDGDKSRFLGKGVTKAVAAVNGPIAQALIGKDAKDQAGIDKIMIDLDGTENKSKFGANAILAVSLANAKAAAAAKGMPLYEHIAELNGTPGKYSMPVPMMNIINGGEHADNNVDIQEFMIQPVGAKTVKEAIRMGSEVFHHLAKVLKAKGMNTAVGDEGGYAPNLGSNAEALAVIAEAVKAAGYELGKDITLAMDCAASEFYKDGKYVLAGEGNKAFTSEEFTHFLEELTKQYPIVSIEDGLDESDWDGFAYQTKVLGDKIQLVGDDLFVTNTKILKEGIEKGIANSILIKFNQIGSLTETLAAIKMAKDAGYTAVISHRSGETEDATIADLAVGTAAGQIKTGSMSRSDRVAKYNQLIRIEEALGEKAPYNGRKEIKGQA

| Structure (SMILES) | X-ray crystal structure, 1.8 Å [1] | inhibition at 20 µM [2] [%] |
| --- | --- | --- |
| O=C(O)C(CO)OP(=O)(O)O (centres unmarked) [2-PGA] | we observe a fully occupied active site with 2-PGA and two Mg-ions bound (PDB 6BFy) |  |
| NCCOCCOCCNC(=O)Cc1ccc(Nc2nc(NCc3ccc(F)cc3)nc(NCC3CCCCC3)n2)cc1 [compound 41, ENOblock] |  | 41 |
